Molecular target: T1, cOpn5L2 (Gallus gallus, UniProt B3XZF6)
T1 construct: N-terminal peptide MEEQYISKLHPVVDY, C-terminal peptide IRLSPTAKVESQGAARH (antigens)
T1 sequence (B3XZF6 1-348): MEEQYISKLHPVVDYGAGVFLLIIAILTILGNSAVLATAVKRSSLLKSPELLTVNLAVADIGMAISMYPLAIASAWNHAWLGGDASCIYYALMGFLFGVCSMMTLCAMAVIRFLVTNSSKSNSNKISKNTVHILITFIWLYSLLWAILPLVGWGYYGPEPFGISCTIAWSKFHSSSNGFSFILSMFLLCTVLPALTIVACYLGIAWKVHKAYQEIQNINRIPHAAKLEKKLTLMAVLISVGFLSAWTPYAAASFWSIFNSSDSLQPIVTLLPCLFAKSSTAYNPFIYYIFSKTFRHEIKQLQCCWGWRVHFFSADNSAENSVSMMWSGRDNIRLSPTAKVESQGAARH
Test: absorption spectra of purified pigment, HPLC of retinal oximes, GTPgammaS binding Gi activation assay
Conditions: 5 uM retinal added to cell medium, pH 6.5, spectra at 0 C

SMILES: CC1=C(/C=C/C(C)=C/C=C/C(C)=C/C=O)C(C)(C)CCC1 [all-trans-retinal]
- absorption spectra of purified pigment, HPLC of retinal oximes, GTPgammaS bindin (agonist, Gi assay in dark at pH 7.0, 0 C, retinylidene chromophore): all-trans-retinal most likely incorporates directly into cOpn5L2, which results in induction of basal constitutive activity

SMILES: CC1=C(/C=C/C(C)=C/C=C\C(C)=C\C=O)C(C)(C)CCC1 [11-cis-retinal]
- absorption spectra of purified pigment, HPLC of retinal oximes, GTPgammaS bindin (chromophore of UV-absorbing form, UV light converts it to the active all-trans form): absorption spectrum and the light-dependent changes of cOpn5L2 reconstituted with 11-cis-retinal

— publication PMC3279408, “A Non-Mammalian Type Opsin 5 Functions Dually in the Photoreceptive and Non-Photoreceptive Organs of Birds” (PLoS ONE, 2012)
